Biological target: T1, PDE4B (human recombinant) enzyme (Homo sapiens, UniProt Q07343)
T1 construct: made in house; host or cells: Saccharomyces cerevisiae strain GL62 (PDE-deficient yeast), as described in WO 94/20079
Test: Inhibition of PDE4B catalytic activity, IMAP fluorescence polarisation (FP) assay
Assay type: biochemical
Details: inhibition of catalytic activity at PDE4B (human recombinant); FP assay described above or similar
Source text: Human recombinant PDE4B, in particular the 2B splice variant thereof (HSPDE4B2B), is disclosed in WO 94/20079 and also in M. M. McLaughlin et al., “A low Km, rolipram-sensitive, cAMP-specific phosphodiesterase from human brain: cloning and expression of cDNA, biochemical characterisation of recombinant protein, and tissue distribution of mRNA”, J. Biol. Chem., 1993, 268, 6470-6476. For example, in Example 1 of WO 94/20079, human recombinant PDE4B is described as being expressed in the PDE-deficient yeast Saccharomyces cerevisiae strain GL62, e.g. after induction by addition of 150 uM CuSO4, and 100,000×g supernatant fractions of yeast cell lysates are described for use in the harvesting of PDE4B enzyme.
The ability of compounds to inhibit PDE catalytic activity was determined by IMAP Fluorescence Polarisation (FP) assay (Molecular Devices Ltd code: R8062) in 384-well format. […]
For the PDE3, PDE4B and PDE4D assays Fluorescein adenosine 3′,5′-cyclic phosphate (Molecular Devices Ltd code: R7091) was added to give ˜40 nM final concentration. […] The FP ratio of parallel to perpendicular light was measured using an Analyst™ plate reader (from Molecular Devices Ltd). […] Curves were analysed using ActivityBase and XLfit (ID Business Solutions Limited). Results were expressed as pIC50 values.

T1 sequence (Q07343 1-564 isoform Q07343-2): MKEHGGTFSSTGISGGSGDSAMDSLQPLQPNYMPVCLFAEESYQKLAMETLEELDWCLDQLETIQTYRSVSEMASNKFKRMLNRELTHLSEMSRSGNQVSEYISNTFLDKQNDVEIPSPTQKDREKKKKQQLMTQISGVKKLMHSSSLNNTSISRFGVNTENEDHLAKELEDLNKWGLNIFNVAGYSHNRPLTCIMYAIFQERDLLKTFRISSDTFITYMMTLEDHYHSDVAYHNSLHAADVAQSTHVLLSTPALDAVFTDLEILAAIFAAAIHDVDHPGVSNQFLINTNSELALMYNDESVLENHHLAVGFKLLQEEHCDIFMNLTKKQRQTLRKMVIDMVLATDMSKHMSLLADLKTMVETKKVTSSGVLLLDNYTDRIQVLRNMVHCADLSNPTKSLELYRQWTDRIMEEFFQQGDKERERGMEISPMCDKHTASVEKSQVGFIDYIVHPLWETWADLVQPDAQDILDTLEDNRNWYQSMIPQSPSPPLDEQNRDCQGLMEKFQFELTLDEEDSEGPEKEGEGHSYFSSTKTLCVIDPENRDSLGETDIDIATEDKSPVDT

SMILES: Cc1cc(S(C)(=O)=O)cc2c(Nc3cccc(C#N)c3)c(C(N)=O)nnc12 [Example 1, 4-[(3-Cyanophenyl)amino]-8-methyl-6-(methylsulfonyl)-3-cinnolinecarboxamide]
- IC50: ~100 pM
